Experimental findings from ChEMBL document CHEMBL1201862, “PubChem BioAssay data set” (2004) are described below.

Test systems include NCI-H226; HOP-62; UACC-257; SF-268; UO-31; HCT-116; SF-295; NCI-H522; HOP-92; SNB-75; TK-10; DMS-273; HCT-15; LOX IMVI; MOLT-4; OVCAR-5; K562; RXF 393.
Experiment in all cases: DTP human tumour cell line panel, 48 h

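Grown in 96-well plates, cells were treated for 48 hours with each compound at five concentrations. Insufficient inhibition: endpoint recorded as highest concentration tested. GI50 marks 50% less growth.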 Activity calls are given as the source filed them. No stated cut-off is given here; in the data, active = GI50 up to about 1.1 µM and inactive = higher.

As usually defined, the GI50 is the concentration that inhibits growth by half. Regarding `CCC(=O)OC1CCn2c1nc1c2C(=O)C(C)=C(NC(C)=O)C1=N` (stereo not drawn), the GI50 in the assay on NCI-H226 is 1.93 µM (inactive); in the assay on HOP-62 it was 1.83 µM (inactive); in the assay with UACC-257, 1.24 µM (inactive); with SF-268, 2.54 µM (inactive); with UO-31 it was 2.2 µM (inactive); in the assay with HCT-116, 0.849 µM (active). Besides, the GI50 in the assay with SF-295 was 2.02 µM (inactive); with NCI-H522, 1.39 µM (inactive); in the assay with HOP-92, 2.21 µM (inactive); with SNB-75, 2.48 µM (inactive); in the assay on TK-10 it was 3.72 µM (inactive); in the assay with DMS-273, 1.67 µM (inactive). Also, the GI50 in the assay with HCT-15 was 2.25 µM; with LOX IMVI, 0.755 µM (active); with MOLT-4, 1.54 µM (inactive); in the assay with OVCAR-5 it was 1.87 µM (inactive); in the assay on K562, 2.34 µM (inactive).
For the compound `COc1ccc2occ(CCC(=O)O)c2c1`, the GI50 in the assay with HOP-62, with UACC-257, in the assay with RXF 393, in the assay with HCT-116, with SF-295 and with HOP-92 was > 100 µM (inactive) throughout. Also, the GI50 is > 100 µM (inactive) in the assay with SNB-75; > 100 µM (inactive) in the assay on TK-10; > 100 µM (inactive) with DMS-273; greater than 100 µM in the assay on HCT-15; > 100 µM (inactive) in the assay with LOX IMVI; > 100 µM (inactive) in the assay on MOLT-4. Besides, the GI50 in the assay on K562 is > 100 µM (inactive).
`NC(=O)c1ccccc1NC(=O)C(=O)C(C(=O)c1ccc(Cl)c(Cl)c1)C1OC(=O)c2ccccc21` (stereo not drawn): the GI50 in the assay on NCI-H226 was 14.9 µM (inactive); in the assay with HOP-62 it was 43.8 µM (inactive); in the assay with UACC-257, 62.4 µM (inactive); in the assay with SF-268, 34.4 µM (inactive); with RXF 393 it was 17 µM (inactive); in the assay with HCT-116, 18.7 µM (inactive). The GI50 was 42.8 µM (inactive) with HOP-92; 23.4 µM (inactive) in the assay on SNB-75; 36.2 µM (inactive) in the assay with DMS-273; 46.5 µM in the assay on HCT-15; > 100 µM (inactive) in the assay on MOLT-4; > 100 µM (inactive) with OVCAR-5. Further, in the assay with K562, the GI50 is > 100 µM (inactive).
On to `O=C(/C=C/c1ccc([N+](=O)[O-])o1)N1CCN(Cc2ccccc2)CC1`, for which the GI50 in the assay with HOP-62 was 20.2 µM (inactive); with UACC-257, 7.89 µM (inactive); in the assay on SF-268, 14 µM (inactive); with UO-31, 17.3 µM (inactive); in the assay on RXF 393 it was 11.8 µM (inactive); in the assay on HCT-116, 10.8 µM (inactive). For the same compound, the GI50 is 15.3 µM (inactive) in the assay on SF-295; 2.82 µM (inactive) in the assay on NCI-H522; 14.1 µM (inactive) with HOP-92; 14.7 µM (inactive) in the assay on SNB-75; 23.2 µM (inactive) in the assay with TK-10; 9.82 µM (inactive) in the assay with DMS-273. In addition, the GI50 in the assay on HCT-15 is 4.41 µM; in the assay with LOX IMVI, 12.6 µM (inactive); in the assay with MOLT-4, 11.6 µM (inactive); with OVCAR-5, 17.3 µM (inactive); in the assay with K562, 3.46 µM (inactive).
Take `C=C(COC(C)=O)CC(/C=C(\C)CC/C=C(\C)CO)OC(C)=O` (stereo not drawn): the GI50 with NCI-H226, in the assay with HOP-62, in the assay with SF-268, in the assay with UO-31, with RXF 393 and in the assay on HCT-116 was > 100 µM (inactive) each time. For the same compound, the GI50 is > 100 µM (inactive) in the assay with SF-295; > 100 µM (inactive) in the assay with NCI-H522; 54.8 µM (inactive) in the assay with HOP-92; 59 µM (inactive) in the assay on SNB-75; > 100 µM (inactive) in the assay with TK-10; > 100 µM (inactive) with DMS-273. Also, the GI50 in the assay with HCT-15 is greater than 100 µM; in the assay with LOX IMVI, > 100 µM (inactive); in the assay with MOLT-4, 35.1 µM (inactive); with OVCAR-5, > 100 µM (inactive); in the assay with K562, > 100 µM (inactive).
As for `COc1ccc2[nH]c3c4c(cc(-c5ccccc5)c3c2c1)C(=O)N(c1ccccc1)C4=O`, the GI50 in the assay with NCI-H226 was 25.1 µM (inactive); with HOP-62, 14.2 µM (inactive); in the assay on UACC-257, 35.3 µM (inactive); in the assay with SF-268, 23.1 µM (inactive); with UO-31 it was 28.5 µM (inactive); in the assay with RXF 393, 13 µM (inactive). The GI50 in the assay on HCT-116 is 29.2 µM (inactive); in the assay with SF-295, 4.84 µM (inactive); in the assay with NCI-H522, 8.24 µM (inactive); in the assay on HOP-92, 17.6 µM (inactive); in the assay on SNB-75, 6.3 µM (inactive); in the assay on TK-10 it was 64.9 µM (inactive). For the same compound, the GI50 in the assay with DMS-273 is 2.07 µM (inactive); with HCT-15, 41.4 µM; with LOX IMVI, 16.1 µM (inactive); in the assay on MOLT-4 it was 19.5 µM (inactive); with OVCAR-5, > 100 µM (inactive); in the assay with K562 it was 22.1 µM (inactive).
On to `COc1cccc(NC(=O)CC(=O)N2N=C(n3ccc4ccccc43)CC2c2ccccc2)c1` (stereo not drawn), for which the GI50 in the assay with HOP-62, in the assay on UACC-257, in the assay with SF-268, in the assay with UO-31, in the assay on RXF 393 and in the assay with HCT-116 was > 100 µM (inactive) throughout. The GI50 in the assay on SF-295 is > 100 µM (inactive); in the assay with NCI-H522, > 100 µM (inactive); in the assay with HOP-92, 55.6 µM (inactive); in the assay on SNB-75, 71.3 µM (inactive); with TK-10 it was > 100 µM (inactive); with DMS-273, > 100 µM (inactive). The 50% growth inhibitory concentration (GI50) in the assay with HCT-15 was greater than 100 µM; with LOX IMVI, > 100 µM (inactive); with MOLT-4 it was > 100 µM (inactive); in the assay on OVCAR-5 it was > 100 µM (inactive); in the assay with K562 it was > 100 µM (inactive).
`COC(=O)c1c2cccccc-2c(Cc2c3cccccc-3c(C(=O)OC)c2O)c1O`: the GI50 in the assay with NCI-H226, with HOP-62, with UACC-257, with SF-268, in the assay with UO-31 and in the assay on HCT-116 was > 100 µM (inactive) throughout. The GI50 is > 100 µM (inactive) in the assay on SF-295; > 100 µM (inactive) in the assay on NCI-H522; > 100 µM (inactive) with HOP-92; 86.5 µM (inactive) in the assay with SNB-75; > 100 µM (inactive) in the assay on TK-10; > 100 µM (inactive) in the assay on DMS-273. In addition, the GI50 was greater than 100 µM with HCT-15; > 100 µM (inactive) with LOX IMVI; > 100 µM (inactive) with MOLT-4; > 100 µM (inactive) in the assay on OVCAR-5; > 100 µM (inactive) with K562.
As to `CC(=O)N1CC(=O)NC1=S`, the GI50 with NCI-H226, in the assay with HOP-62, with UACC-257, in the assay with SF-268, with UO-31 and with HCT-116 was > 100 µM (inactive) in each case. Also, the GI50 with SF-295 is > 100 µM (inactive); in the assay on NCI-H522, > 100 µM (inactive); in the assay with HOP-92, > 100 µM (inactive); in the assay on SNB-75 it was 69.3 µM (inactive); in the assay on TK-10 it was > 100 µM (inactive); in the assay on DMS-273, > 100 µM (inactive). The GI50 in the assay with HCT-15 was greater than 100 µM; in the assay on LOX IMVI, > 100 µM (inactive); with MOLT-4, > 100 µM (inactive); with OVCAR-5 it was > 100 µM (inactive); in the assay on K562 it was > 100 µM (inactive).
Regarding `CCOc1cc2c(cc1OC)c[n+](C)c1c3cc(OC)c(OC)cc3ccc21`, the GI50 was > 57.1 µM (inactive) in the assay on NCI-H226; > 81.7 µM (inactive) in the assay on HOP-62; > 61.4 µM (inactive) in the assay on UACC-257; > 93.3 µM (inactive) in the assay on SF-268; > 100 µM (inactive) in the assay on UO-31; 34 µM (inactive) in the assay with RXF 393. In addition, the GI50 was 49.1 µM (inactive) with HCT-116; > 100 µM (inactive) in the assay with SF-295; > 52.1 µM (inactive) in the assay with NCI-H522; 27 µM (inactive) in the assay on HOP-92; 59.4 µM (inactive) in the assay with TK-10; 27.8 µM (inactive) in the assay on DMS-273. Moreover, the GI50 is greater than 75.2 µM in the assay with HCT-15; 46.6 µM (inactive) in the assay on LOX IMVI; > 81.3 µM (inactive) in the assay with MOLT-4; > 49.1 µM (inactive) in the assay on OVCAR-5; > 34.3 µM (inactive) in the assay with K562.
On to `O=C(O)C1=NN=C(C(=O)O)NN1`, for which the GI50 with NCI-H226, in the assay on UACC-257, with SF-268, in the assay on UO-31, in the assay with RXF 393 and in the assay on HCT-116 was > 100 µM (inactive) each time. Further, the GI50 in the assay on SF-295, with NCI-H522, in the assay on HOP-92, in the assay on SNB-75, in the assay with TK-10 and in the assay with DMS-273 was > 100 µM (inactive) each time. The GI50 with HCT-15 was greater than 100 µM; in the assay with LOX IMVI, > 100 µM (inactive); in the assay with MOLT-4, > 100 µM (inactive); with OVCAR-5, > 100 µM (inactive); with K562 it was 72.9 µM (inactive).
Regarding `CC[N+](C)(CC)CC(C)(C)C(=O)/C=C/c1ccc(/C=C/C(=O)C(C)(C)C[N+](C)(CC)CC)cc1`, the GI50 in the assay on NCI-H226, with HOP-62, in the assay with UACC-257, in the assay on SF-268, in the assay with UO-31 and in the assay on RXF 393 was > 100 µM (inactive) in each case. The GI50 with HCT-116, with SF-295, with NCI-H522, in the assay on HOP-92, in the assay with SNB-75 and in the assay with TK-10 was > 100 µM (inactive) in each case. Further, the GI50 in the assay with DMS-273 is > 100 µM (inactive); with HCT-15, greater than 100 µM; with LOX IMVI, > 100 µM (inactive); in the assay with MOLT-4 it was > 100 µM (inactive); in the assay with OVCAR-5, > 100 µM (inactive); with K562, > 100 µM (inactive).
